One data set addresses T1, Hb (Homo sapiens, UniProt P68871+P69905).
T1 construct: from tissue; host or cells: whole blood
The data set can be described thus: Whole blood assay: oxygen equilibrium curves (Hemox Analyzer), change in p50. Format: cell-based. To be noted: whole blood incubated 1 h at 37° C., equimolar ratio of hemoglobin to compound. As for the experimental part: Whole blood assay: Oxygen equilibrium curves (OECs) were collected using a TCS Hemox Analyzer (TCS Scientific Company, New Hope, Pa., USA) to measure changes in the binding affinity of O2 to Hb. Whole blood was incubated for 1 h at 37° C. with the indicated compounds in an equimolar ratio of hemoglobin to compound and diluted into TES (2-[[1,3-dihydroxy-2-(hydroxymethyl)propan-2-yl]amino]ethanesulfonic acid)/saline buffer prior to measurements. For example, for whole blood at 20% hematocrit [Hct], which corresponds to 1 mM Hb, a compound concentration of 1 mM was used (for example, for compounds 1-5), and the incubated sample diluted 50- to 100-fold. The concentration for compounds 6-44 (Diastereomers 1 and 2) varied but remained in equimolar ratio to hemoglobin. The diluted samples were then oxygenated with compressed air within the Hemox Analyzer and the OECs were collected during deoxygenation as previously described (Guarnone et al., Haematologica, 1995, 80, 426-430). p 50 (partial pressure of O2 at which Hb is 50% saturated with O2) values were obtained using a non-linear regression analysis. Percentage change in p50 [Δp50(%)] was calculated as follows: Δp50(%)=[(p50 of control)−p50 with compound)/p50 control]×100.

A short description of another data set: Rat PK, oral gavage. It is filed as in vivo, Sprague-Dawley rats. To be noted: oral gavage 10 mg/kg; for blood plasma ratio / half-life: male, Sprague-Dawley, rat, po, 10 mg/kg; for blood plasma ratio: whole blood and plasma; for half-life: whole blood. As for the experimental part: Rat PK: A group of fasted male Sprague-Dawley rats were dosed via oral gavage at 10 mg/kg with test articles formulated in 0.5% methylcellulose suspension. Blood samples were collected through jugular vein at pre-selected time points. Blood samples were prepared by protein precipitation with ACN, vortexed and then centrifuged before supernatants were transferred for bioanalysis. Test article concentrations were measured by HPLC-MS-MS. Pharmacokinetic parameters were calculated using non-compartment analysis. The blood/plasma ratio was calculated by dividing the AUClast (i.e., the area under the curve calculated from t=0 to the last detectable time-point) in blood by the AUClast in plasma. The T1/2 was calculated via a linear regression of the terminal phase of the blood-time concentration profile.

Another data set addresses T2, PXR nuclear receptor (Homo sapiens, UniProt O75469).
T2 construct: expressed in transfected cells; host or cells: DPX2 (stably transfected human hepatoma cells)
T2 sequence (O75469 1-434): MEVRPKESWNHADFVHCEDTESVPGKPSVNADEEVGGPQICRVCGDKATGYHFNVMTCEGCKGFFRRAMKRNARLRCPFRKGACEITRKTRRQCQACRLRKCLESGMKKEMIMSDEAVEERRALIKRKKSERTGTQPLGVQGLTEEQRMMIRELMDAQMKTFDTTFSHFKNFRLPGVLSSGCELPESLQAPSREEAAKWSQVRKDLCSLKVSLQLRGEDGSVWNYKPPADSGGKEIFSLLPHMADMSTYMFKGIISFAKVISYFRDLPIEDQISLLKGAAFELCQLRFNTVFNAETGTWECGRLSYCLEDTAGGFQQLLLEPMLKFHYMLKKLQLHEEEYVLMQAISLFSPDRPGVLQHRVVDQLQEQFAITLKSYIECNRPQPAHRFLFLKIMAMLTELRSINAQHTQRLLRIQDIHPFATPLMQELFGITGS
As to the kind of experiment: CYP (PXR) assay: PXR nuclear receptor activation in DPX2 reporter cells. It is filed as cell-based. To be noted: fold PXR activation, 24 h. Here is the method:
CYP (PXR) Assay: PXR nuclear receptor activation utilizing stably-transfected human hepatoma cell lines (DPX2) were seeded in a 96-well plate. Twenty-four hours after seeding, the cells were treated with selected concentrations of compounds in duplicate wells, and cells then returned to the incubator for an additional 24 h. At the end of this incubation period, the number of viable cells/well were determined using Promega's Cell Titer Fluor cytotoxicity assay. Subsequently, Promega's ONE-Glo were added to the same wells and reporter gene activity were assessed. The average luminescent units for each compound dose of two replicates were divided by the average for the DMSO solvent control to determine the fold-induction. In accordance with industry standard, a threshold of ≥2.5-fold was used to flag compounds that have in vivo CYP induction risk.

Where [1] appears, read: AUClast in blood divided by AUClast in plasma, rats.
The mark [2] stands for this setting: fasted male Sprague-Dawley rats, 0.5% methylcellulose suspension, blood.

The record followed here is US11548880B2, “Modulators of hemoglobin” (Global Blood Therapeutics, Inc., priority 2018, dated 2023).

T1 sequence (P69905 2-142 limits assumed): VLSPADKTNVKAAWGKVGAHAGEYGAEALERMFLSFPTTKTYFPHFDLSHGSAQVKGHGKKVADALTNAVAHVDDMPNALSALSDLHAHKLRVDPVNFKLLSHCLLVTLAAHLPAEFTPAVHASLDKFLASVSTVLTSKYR
T1 sequence (P68871 2-147 limits assumed): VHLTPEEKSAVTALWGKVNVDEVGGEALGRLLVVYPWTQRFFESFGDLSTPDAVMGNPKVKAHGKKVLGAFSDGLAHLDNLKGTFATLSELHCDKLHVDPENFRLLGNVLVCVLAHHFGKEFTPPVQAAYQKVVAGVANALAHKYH

For `O=Cc1c(O)cccc1OCC1CSCCN1C(=O)c1cccnc1CCO` (single isomer, unassigned) [10 (Enantiomer 2)], the “Delta-p50 (%)” value at Hb worked out at 87.3%. In the data set “Rat PK, oral gavage” (setting [1]), the blood plasma ratio worked out at 212. In “Rat PK, oral gavage” (setting [2]), this molecule gave a half-life of 4.67 days.
For `O=Cc1c(O)cccc1OC[C@@H]1CSCCN1C(=O)c1ccccc1C(O)CO` (single isomer, unassigned) [35 (Diastereomer 1)] the same measures were 81.35%, 493 and 4.25 days.
Take `O=Cc1c(O)cccc1OC[C@@H]1CSCCN1C(=O)c1ccccc1C(O)CO` (single isomer, unassigned) [35 (Diastereomer 2)]: at Hb, the “Delta-p50 (%)” value was 83.1%. For the same molecule, the Blood/Plasma ratio in the data set “Rat PK, oral gavage” (setting [1]) is on record as 636. Besides, the “T1/2” value in the data set “Rat PK, oral gavage” (setting [2]) is listed as 89 h.
In the case of `O=Cc1c(O)cccc1OCC1CSCCN1C(=O)c1ccccc1CO` (single isomer, unassigned) [40 (Enantiomer 2)], the “Delta-p50 (%)” value at Hb was 83.36%. The blood plasma ratio in the data set “Rat PK, oral gavage” (setting [1]) is 424. Also, in the data set “Rat PK, oral gavage” (setting [2]), the half-life was 4.88 days.
With `O=Cc1c(O)cccc1OCC1CSCCN1C(=O)c1cccnc1CO` (single isomer, unassigned) [Compound 13 (Enantiomer 1), 2-hydroxy-6-((4-(2-(hydroxymethyl)nicotinoyl)-thiomorpholin-3-yl)-methoxy)benzaldehyde], the “Delta-p50 (%)” value at Hb turned out to be 80.6%. Besides, the “CYP (PXR) Flag” value at PXR nuclear receptor (at 30 μM) is recorded as “N (PXR activation < 2.5-fold)”. In addition, the blood plasma ratio in “Rat PK, oral gavage” (setting [1]) was 230. In the data set “Rat PK, oral gavage” (setting [2]), this molecule had a half-life of 3.67 days.
As to `O=Cc1c(O)cccc1OC[C@@H]1CCCCN1C(=O)c1cccnc1CCO` [Compound 1, (S)-2-hydroxy-6-((1-(2-(2-hydroxyethyl)nicotinoyl)piperidin-2-yl)methoxy)benzaldehyde], at Hb, the “Delta-p50 (%)” value is 77.3%. At PXR nuclear receptor (at 25 μM), the “CYP (PXR) Flag” value is “N^1 (PXR activation < 2.5-fold)”. Further, the blood plasma ratio in the data set “Rat PK, oral gavage” (setting [1]) was 162. For the same molecule, the half-life in the data set “Rat PK, oral gavage” (setting [2]) was 2.42 days.
With `O=Cc1c(O)cccc1OC[C@@H]1COCCN1C(=O)c1cccnc1CCO` [Compound 8, (S)-2-hydroxy-6-((4-(2-(2-hydroxyethyl)nicotinoyl)morpholin-3-yl)methoxy)benzaldehyde], the “Delta-p50 (%)” value at Hb amounted to 79.8%. In addition, the “CYP (PXR) Flag” value at PXR nuclear receptor (at 30 μM) is “N (PXR activation < 2.5-fold)”. The blood plasma ratio in “Rat PK, oral gavage” (setting [1]) worked out at 105. The molecule also gave a half-life in the data set “Rat PK, oral gavage” (setting [2]) of 2.88 days.
Take `O=Cc1c(O)cccc1OC[C@@H]1CCCCN1C(=O)c1cccnc1CO` [Compound 11, (S)-2-hydroxy-6-((1-(2-(hydroxymethyl)nicotinoyl)piperidin-2-yl)methoxy)benzaldehyde]: the “Delta-p50 (%)” value on Hb came to 79.3%. The blood plasma ratio in the data set “Rat PK, oral gavage” (setting [1]) came to 126. Further, the half-life in “Rat PK, oral gavage” (setting [2]) is 2.29 days.
As for `O=Cc1c(O)cccc1OC[C@@H]1COCCN1C(=O)c1cccnc1CO` [Compound 12, (S)-2-hydroxy-6-((4-(2-(hydroxymethyl)nicotinoyl)morpholin-3-yl)methoxy)benzaldehyde], the “Delta-p50 (%)” value at Hb was 76.7%. For the same molecule, the “CYP (PXR) Flag” value on PXR nuclear receptor (at 30 μM) is “N (PXR activation < 2.5-fold)”. Also, the blood plasma ratio in the data set “Rat PK, oral gavage” (setting [1]) was found to be 131. Further, the half-life in the data set “Rat PK, oral gavage” (setting [2]) was 2.42 days.
Turning to `COCCc1ncccc1C(=O)N1CCOC[C@H]1COc1cccc(O)c1C=O` [Compound 20, 2-hydroxy-6-{[(3S)-4-[2-(2-methoxyethyl)pyridine-3-carbonyl]morpholin-3-yl]methoxy}benzaldehyde], the “Delta-p50 (%)” value on Hb amounted to 78.32%. For the same molecule, in “Rat PK, oral gavage” (setting [1]), the blood plasma ratio amounted to 45. For the same molecule, the half-life in the data set “Rat PK, oral gavage” (setting [2]) is 2.71 days.
For `O=Cc1c(O)cccc1OC[C@@H]1COCCN1C(=O)c1ccccc1CO` [Compound 23, 2-hydroxy-6-{[(3S)-4-[2-(hydroxymethyl)benzoyl]morpholin-3-yl]methoxy}benzaldehyde] the same measures were 70.92%, 59 and 2.58 days.
Take `N#CCCc1nccnc1C(=O)N1CCOC[C@H]1COc1cccc(O)c1C=O` [Compound 32, 3-{3-[(3S)-3-[(2-formyl-3-hydroxyphenoxy)methyl]morpholine-4-carbonyl]pyrazin-2-yl}propanenitrile]: at Hb, the “Delta-p50 (%)” value is 60.55%.
On to `O=Cc1c(O)cccc1OC[C@@H]1COCCN1C(=O)c1nccnc1CO` [Compound 33, 2-hydroxy-6-{[(3S)-4-[3-(hydroxymethyl)pyrazine-2-carbonyl]morpholin-3-yl]methoxy}benzaldehyde], for which the “Delta-p50 (%)” value at Hb stood at 49.03%.
On the same count and under the same terms, for `O=Cc1c(O)cccc1OC[C@@H]1CCCCN1C(=O)c1ccccc1C(O)CO` (stereo partly drawn) [Compound 34, 2-{[(2S)-1-[2-(1,2-dihydroxyethyl)benzoyl]piperidin-2-yl]methoxy}-6-hydroxybenzaldehyde] the value was 79.46%.
As for `O=Cc1c(O)cccc1OC[C@@H]1CCCCN1C(=O)c1cccnc1C(O)CO` (stereo partly drawn) [Compound 36, 2-{[(2S)-1-[2-(1,2-dihydroxyethyl)pyridine-3-carbonyl]piperidin-2-yl]methoxy}-6-hydroxybenzaldehyde], the “Delta-p50 (%)” value at Hb was found to be 77.04%. Besides, in the data set “Rat PK, oral gavage” (setting [1]), the blood plasma ratio was 115. In the data set “Rat PK, oral gavage” (setting [2]), this molecule gave a half-life of 2.33 days.
Regarding `O=Cc1c(O)cccc1OC[C@H]1COCCN1C(=O)c1cccnc1CCO` [Compound 37, 2-hydroxy-6-{[(3R)-4-[2-(2-hydroxyethyl)pyridine-3-carbonyl]morpholin-3-yl]methoxy}benzaldehyde], the “Delta-p50 (%)” value at Hb came to 60.58%.
Still for that read-out and setting: for `O=Cc1c(O)cccc1OC[C@H]1CCCCN1C(=O)c1cccnc1CCO` [Compound 38, 2-hydroxy-6-{[(2R)-1-[2-(2-hydroxyethyl)pyridine-3-carbonyl]piperidin-2-yl]methoxy}benzaldehyde] the value was 60.85%.
Turning to `CC(C)(O)Cc1ncccc1C(=O)N1CCOC[C@H]1COc1cccc(O)c1C=O` [Compound 39, 2-hydroxy-6-{[(3S)-4-[2-(2-hydroxy-2-methylpropyl)pyridine-3-carbonyl]morpholin-3-yl]methoxy}benzaldehyde], at Hb, the “Delta-p50 (%)” value is listed as 77.98%. The blood plasma ratio in “Rat PK, oral gavage” (setting [1]) turned out to be 52. The molecule also gave a half-life in “Rat PK, oral gavage” (setting [2]) of 2.17 days.
Turning to `O=Cc1c(O)cccc1OCC1CSCCN1C(=O)c1ccccc1CO` (centres unmarked) [Compound 40, 2-hydroxy-6-({4-[2-(hydroxymethyl)benzoyl]thiomorpholin-3-yl}methoxy)benzaldehyde], the “Delta-p50 (%)” value on Hb is 72.82%.
In the case of `O=Cc1c(O)cccc1OC[C@@H]1CCCCN1C(=O)c1cccnc1` [Reference Compound A, reference compound], at PXR nuclear receptor (at 30 μM), the “CYP (PXR) Flag” value is reported as “Y (PXR activation ≥ 2.5-fold)”. Besides, in the data set “Rat PK, oral gavage” (setting [1]), the blood plasma ratio was determined as 75. Further, the half-life in the data set “Rat PK, oral gavage” (setting [2]) was 1.21 days.
With `O=Cc1c(O)cccc1OC[C@@H]1COCCN1C(=O)c1ccccc1` [Reference Compound B, reference compound], at PXR nuclear receptor (at 30 μM), the “CYP (PXR) Flag” value is “Y (PXR activation ≥ 2.5-fold)”. The blood plasma ratio in “Rat PK, oral gavage” (setting [1]) amounted to 98. In “Rat PK, oral gavage” (setting [2]), this molecule had a half-life of 1.24 days.
Regarding `Cc1ncccc1C(=O)N1CCCC[C@H]1COc1cccc(O)c1C=O` [Reference Compound C, reference compound], the “CYP (PXR) Flag” value on PXR nuclear receptor (at 25 μM) is recorded as “Y^1 (PXR activation ≥ 2.5-fold)”.

In general, half-life refers to the time in which the quantity being followed falls by half. A lower half-life goes with rapid decline.
